What was measured:
Assay in all cases: Kinase profiling screen (radioactive filter-binding assay)
Format in all cases: biochemical
[1] = molecular target: Lck (Homo sapiens, UniProt P06239); conditions: 100 μM compound, 50 μM ATP; read-out: Kinase activity, % of activity in the absence of inhibitor
Description: (§1) Profiling of 117 protein kinases with CoA, dpCoA and ADP was carried out at the International Centre for Protein Kinase Profiling at the University of Dundee. Each compound was tested in vitro, in duplicate, at 100 μM final concentration using recombinant kinases, model substrates and optimal concentrations of ATP. Bacterially expressed full-length His-Aurora A was used to determine the IC50 value for CoA (in the presence or absence of DTT), dpCoA, ADP and desulfo-CoA. The assay was performed in the presence of 5 μM competing ATP. To examine whether the inhibitory effect of CoA on Aurora A is modulated by TPX2, IC50 values for CoA were also generated in the presence and absence of 1 μg TPX2 (residues 1–43) fragment.

[2] = molecular target: JNK2 (Homo sapiens, UniProt P45984); conditions: 100 μM compound, 20 μM ATP; read-out: Kinase activity, % of activity in the absence of inhibitor
Description: as §1

[3] = molecular target: CAMK1 (Homo sapiens, UniProt Q14012); conditions: 100 μM compound, 50 μM ATP; read-out: Kinase activity, % of activity in the absence of inhibitor
Description: as §1

[4] = molecular target: EPH-A2 (Homo sapiens, UniProt P29317); conditions: 100 μM compound, 50 μM ATP; read-out: Kinase activity, % of activity in the absence of inhibitor
Description: as §1

[5] = molecular target: MLK1 (Homo sapiens, UniProt P80192); conditions: 100 μM compound, 20 μM ATP; read-out: Kinase activity, % of activity in the absence of inhibitor
Description: as §1

[6] = molecular target: EPH-A4 (Homo sapiens, UniProt P54764); conditions: 100 μM compound, 50 μM ATP; read-out: Kinase activity, % of activity in the absence of inhibitor
Description: as §1

[7] = molecular target: MARK1 (Homo sapiens, UniProt Q9P0L2); conditions: 100 μM compound, 20 μM ATP; read-out: Kinase activity, % of activity in the absence of inhibitor
Description: as §1

[8] = molecular target: FGF-R1 (Homo sapiens, UniProt P11362); conditions: for activity at 100 µM: 100 μM compound, 20 μM ATP, read-out: Kinase activity, % of activity in the absence of inhibitor
Description: as §1

[9] = molecular target: MSK1 (Homo sapiens, UniProt O75582); conditions: 100 μM compound, 20 μM ATP; read-out: Kinase activity, % of activity in the absence of inhibitor
Description: as §1

[10] = molecular target: CDK2-Cyclin A (Homo sapiens, UniProt P24941); conditions: 100 μM compound, 20 μM ATP; read-out: Kinase activity, % of activity in the absence of inhibitor
Description: as §1

[11] = molecular target: T1, TAK1 (Homo sapiens, UniProt O43318); conditions: 100 μM compound, 5 μM ATP; read-out: Kinase activity, % of activity in the absence of inhibitor
T1 sequence (O43318 1-303 limits assumed): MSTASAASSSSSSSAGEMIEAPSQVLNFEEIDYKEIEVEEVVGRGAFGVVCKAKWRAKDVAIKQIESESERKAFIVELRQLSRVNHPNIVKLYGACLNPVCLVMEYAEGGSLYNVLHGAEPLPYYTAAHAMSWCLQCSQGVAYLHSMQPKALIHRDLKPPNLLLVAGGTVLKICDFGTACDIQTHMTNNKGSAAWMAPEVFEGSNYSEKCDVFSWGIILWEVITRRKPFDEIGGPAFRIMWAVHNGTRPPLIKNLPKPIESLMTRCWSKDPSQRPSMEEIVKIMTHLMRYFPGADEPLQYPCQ
Description: as §1

[12] = molecular target: MARK3 (Homo sapiens, UniProt P27448); conditions: 100 μM compound, 5 μM ATP; read-out: Kinase activity, % of activity in the absence of inhibitor
Description: as §1

[13] = molecular target: YES1 (Homo sapiens, UniProt P07947); conditions: for activity at 100 µM: 100 μM compound, 20 μM ATP, read-out: Kinase activity, % of activity in the absence of inhibitor
Description: as §1

[14] = molecular target: RSK1 (Homo sapiens, UniProt Q15418); conditions: 100 μM compound, 50 μM ATP; read-out: Kinase activity, % of activity in the absence of inhibitor
Description: as §1

[15] = molecular target: RIPK2 (Homo sapiens, UniProt O43353); conditions: 100 μM compound, 20 μM ATP; read-out: Kinase activity, % of activity in the absence of inhibitor
Description: as §1

[16] = molecular target: PIM2 (Homo sapiens, UniProt Q9P1W9); conditions: 100 μM compound, 5 μM ATP; read-out: Kinase activity, % of activity in the absence of inhibitor
Description: as §1

[17] = molecular target: MLK3 (Homo sapiens, UniProt Q16584); conditions: 100 μM compound, 20 μM ATP; read-out: Kinase activity, % of activity in the absence of inhibitor
Description: as §1

[18] = molecular target: MKK2 (Homo sapiens, UniProt P36507); conditions: 100 μM compound, 5 μM ATP; read-out: Kinase activity, % of activity in the absence of inhibitor
Description: as §1

[19] = molecular target: T2, BRSK2 (Homo sapiens, UniProt Q8IWQ3); conditions: 100 μM compound, 50 μM ATP; read-out: Kinase activity, % of activity in the absence of inhibitor
T2 sequence (Q8IWQ3 1-736): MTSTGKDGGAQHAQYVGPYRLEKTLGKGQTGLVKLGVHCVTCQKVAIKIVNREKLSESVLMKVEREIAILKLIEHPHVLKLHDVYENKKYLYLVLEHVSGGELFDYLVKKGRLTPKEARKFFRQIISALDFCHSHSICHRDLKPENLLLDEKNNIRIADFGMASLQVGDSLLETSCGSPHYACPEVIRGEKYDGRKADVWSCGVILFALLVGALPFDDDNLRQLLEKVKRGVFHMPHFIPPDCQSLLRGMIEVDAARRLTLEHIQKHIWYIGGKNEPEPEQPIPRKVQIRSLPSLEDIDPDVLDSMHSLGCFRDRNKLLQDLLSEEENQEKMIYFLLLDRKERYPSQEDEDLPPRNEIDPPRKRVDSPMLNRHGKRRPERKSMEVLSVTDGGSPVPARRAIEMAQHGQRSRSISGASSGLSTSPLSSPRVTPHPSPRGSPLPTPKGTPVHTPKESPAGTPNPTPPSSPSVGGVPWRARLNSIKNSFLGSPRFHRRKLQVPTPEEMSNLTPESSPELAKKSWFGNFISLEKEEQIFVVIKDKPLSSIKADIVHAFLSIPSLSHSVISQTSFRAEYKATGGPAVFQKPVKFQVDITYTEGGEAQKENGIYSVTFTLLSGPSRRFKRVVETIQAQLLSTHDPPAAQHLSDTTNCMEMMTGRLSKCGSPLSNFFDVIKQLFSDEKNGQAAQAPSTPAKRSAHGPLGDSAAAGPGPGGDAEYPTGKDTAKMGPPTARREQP
Description: as §1

MKK2, sequence (P36507 whole entry): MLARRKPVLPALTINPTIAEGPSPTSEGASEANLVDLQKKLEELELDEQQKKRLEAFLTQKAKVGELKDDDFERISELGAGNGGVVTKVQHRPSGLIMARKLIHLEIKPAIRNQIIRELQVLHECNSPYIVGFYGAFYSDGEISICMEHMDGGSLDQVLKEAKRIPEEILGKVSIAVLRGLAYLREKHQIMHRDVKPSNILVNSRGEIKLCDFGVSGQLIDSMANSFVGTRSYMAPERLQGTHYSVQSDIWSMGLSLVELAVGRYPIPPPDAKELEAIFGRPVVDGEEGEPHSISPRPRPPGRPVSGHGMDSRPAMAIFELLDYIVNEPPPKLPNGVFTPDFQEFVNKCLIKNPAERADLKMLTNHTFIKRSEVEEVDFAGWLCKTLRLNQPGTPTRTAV
MLK3, sequence (Q16584 whole entry): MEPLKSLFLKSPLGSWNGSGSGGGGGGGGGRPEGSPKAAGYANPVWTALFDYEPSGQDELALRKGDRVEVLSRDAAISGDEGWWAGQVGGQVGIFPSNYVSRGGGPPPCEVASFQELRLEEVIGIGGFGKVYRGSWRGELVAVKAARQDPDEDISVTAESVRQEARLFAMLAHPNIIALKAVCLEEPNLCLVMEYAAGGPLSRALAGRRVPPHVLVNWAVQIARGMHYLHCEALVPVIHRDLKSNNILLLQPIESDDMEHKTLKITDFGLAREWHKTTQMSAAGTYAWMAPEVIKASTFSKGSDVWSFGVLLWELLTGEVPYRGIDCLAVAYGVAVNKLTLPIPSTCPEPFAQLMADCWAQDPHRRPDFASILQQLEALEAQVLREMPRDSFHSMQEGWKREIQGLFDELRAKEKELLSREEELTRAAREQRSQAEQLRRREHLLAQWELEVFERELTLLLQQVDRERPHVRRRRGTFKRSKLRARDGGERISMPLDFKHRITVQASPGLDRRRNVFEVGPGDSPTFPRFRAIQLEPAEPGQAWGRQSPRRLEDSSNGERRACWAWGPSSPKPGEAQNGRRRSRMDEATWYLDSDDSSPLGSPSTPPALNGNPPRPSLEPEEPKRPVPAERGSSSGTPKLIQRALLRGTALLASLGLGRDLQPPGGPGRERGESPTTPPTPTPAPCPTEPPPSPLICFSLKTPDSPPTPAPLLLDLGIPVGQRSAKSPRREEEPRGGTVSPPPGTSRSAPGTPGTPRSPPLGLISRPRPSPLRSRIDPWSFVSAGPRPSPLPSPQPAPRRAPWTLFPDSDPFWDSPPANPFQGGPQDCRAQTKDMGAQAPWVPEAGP
RSK1, sequence (Q15418 whole entry): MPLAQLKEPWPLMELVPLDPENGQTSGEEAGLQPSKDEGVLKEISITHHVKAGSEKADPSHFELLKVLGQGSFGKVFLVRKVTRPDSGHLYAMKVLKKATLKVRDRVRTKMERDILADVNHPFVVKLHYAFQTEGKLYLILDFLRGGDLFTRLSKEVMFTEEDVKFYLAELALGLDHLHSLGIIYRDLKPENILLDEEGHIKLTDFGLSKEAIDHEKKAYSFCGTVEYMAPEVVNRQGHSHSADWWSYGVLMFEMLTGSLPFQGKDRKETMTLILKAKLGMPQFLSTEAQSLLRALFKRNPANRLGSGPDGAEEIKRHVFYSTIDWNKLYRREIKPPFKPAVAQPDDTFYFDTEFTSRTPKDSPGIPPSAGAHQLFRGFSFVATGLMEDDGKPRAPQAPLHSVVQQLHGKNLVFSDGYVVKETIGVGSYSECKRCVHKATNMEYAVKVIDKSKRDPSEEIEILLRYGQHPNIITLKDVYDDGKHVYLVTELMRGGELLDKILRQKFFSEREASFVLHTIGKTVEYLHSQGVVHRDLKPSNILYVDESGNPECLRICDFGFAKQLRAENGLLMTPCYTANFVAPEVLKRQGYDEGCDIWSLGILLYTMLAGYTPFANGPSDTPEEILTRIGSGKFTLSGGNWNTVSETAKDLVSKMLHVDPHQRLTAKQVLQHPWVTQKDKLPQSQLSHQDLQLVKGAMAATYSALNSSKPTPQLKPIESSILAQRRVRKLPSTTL
PIM2, sequence (Q9P1W9 whole entry): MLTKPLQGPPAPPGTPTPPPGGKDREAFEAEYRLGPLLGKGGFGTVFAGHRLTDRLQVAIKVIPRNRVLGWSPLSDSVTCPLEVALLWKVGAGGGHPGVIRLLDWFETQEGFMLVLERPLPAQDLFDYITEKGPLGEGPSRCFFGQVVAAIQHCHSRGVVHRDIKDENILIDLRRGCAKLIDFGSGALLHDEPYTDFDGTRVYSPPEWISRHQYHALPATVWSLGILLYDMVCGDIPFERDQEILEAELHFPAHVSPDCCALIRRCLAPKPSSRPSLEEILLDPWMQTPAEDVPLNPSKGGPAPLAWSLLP
RIPK2, sequence (O43353 whole entry): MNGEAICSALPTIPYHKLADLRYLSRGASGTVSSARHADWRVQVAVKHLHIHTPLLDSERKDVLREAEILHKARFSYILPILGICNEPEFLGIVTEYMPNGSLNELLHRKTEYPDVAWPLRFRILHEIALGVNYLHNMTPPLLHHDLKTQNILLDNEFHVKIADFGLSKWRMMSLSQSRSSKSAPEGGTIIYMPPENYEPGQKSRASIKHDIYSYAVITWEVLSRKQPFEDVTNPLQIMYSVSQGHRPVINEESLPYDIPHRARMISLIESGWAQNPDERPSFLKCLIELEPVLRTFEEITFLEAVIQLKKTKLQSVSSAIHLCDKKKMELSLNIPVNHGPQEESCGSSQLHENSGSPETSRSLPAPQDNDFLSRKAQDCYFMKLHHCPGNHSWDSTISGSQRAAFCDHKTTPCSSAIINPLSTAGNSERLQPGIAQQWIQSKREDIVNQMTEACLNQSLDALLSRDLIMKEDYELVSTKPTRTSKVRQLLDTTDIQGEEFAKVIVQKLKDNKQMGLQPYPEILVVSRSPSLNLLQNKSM
MARK1, sequence (Q9P0L2 whole entry): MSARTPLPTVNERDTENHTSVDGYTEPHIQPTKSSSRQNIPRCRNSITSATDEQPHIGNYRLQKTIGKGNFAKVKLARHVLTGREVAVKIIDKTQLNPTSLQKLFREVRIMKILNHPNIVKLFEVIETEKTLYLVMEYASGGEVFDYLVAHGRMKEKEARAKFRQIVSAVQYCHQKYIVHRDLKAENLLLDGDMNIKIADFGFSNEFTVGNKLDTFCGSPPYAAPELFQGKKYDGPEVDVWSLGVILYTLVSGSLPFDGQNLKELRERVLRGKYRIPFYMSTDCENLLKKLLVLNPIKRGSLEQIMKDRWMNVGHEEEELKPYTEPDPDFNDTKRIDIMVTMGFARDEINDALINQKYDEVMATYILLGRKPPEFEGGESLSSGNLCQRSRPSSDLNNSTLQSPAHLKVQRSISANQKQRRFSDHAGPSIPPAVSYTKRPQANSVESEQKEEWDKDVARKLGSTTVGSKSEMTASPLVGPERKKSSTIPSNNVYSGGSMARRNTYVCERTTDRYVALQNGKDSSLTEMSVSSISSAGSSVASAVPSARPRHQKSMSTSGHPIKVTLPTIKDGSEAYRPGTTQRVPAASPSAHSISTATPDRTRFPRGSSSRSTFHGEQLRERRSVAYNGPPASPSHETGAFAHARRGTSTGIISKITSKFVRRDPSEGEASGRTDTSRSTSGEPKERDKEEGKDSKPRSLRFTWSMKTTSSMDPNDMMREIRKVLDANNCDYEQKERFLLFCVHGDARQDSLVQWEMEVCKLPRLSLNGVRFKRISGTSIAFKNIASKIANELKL
JNK2, sequence (P45984 whole entry): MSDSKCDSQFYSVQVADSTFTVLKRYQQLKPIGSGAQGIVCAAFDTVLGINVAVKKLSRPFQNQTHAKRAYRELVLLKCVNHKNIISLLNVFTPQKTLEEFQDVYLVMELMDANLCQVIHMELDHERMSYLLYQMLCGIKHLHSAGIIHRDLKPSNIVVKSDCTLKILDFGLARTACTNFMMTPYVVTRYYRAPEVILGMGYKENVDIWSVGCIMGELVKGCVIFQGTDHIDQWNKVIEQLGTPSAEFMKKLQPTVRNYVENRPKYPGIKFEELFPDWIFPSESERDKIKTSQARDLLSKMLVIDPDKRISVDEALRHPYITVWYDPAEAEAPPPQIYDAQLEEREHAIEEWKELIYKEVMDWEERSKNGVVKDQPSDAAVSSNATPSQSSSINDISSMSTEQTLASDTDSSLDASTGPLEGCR
MARK3, sequence (P27448 whole entry): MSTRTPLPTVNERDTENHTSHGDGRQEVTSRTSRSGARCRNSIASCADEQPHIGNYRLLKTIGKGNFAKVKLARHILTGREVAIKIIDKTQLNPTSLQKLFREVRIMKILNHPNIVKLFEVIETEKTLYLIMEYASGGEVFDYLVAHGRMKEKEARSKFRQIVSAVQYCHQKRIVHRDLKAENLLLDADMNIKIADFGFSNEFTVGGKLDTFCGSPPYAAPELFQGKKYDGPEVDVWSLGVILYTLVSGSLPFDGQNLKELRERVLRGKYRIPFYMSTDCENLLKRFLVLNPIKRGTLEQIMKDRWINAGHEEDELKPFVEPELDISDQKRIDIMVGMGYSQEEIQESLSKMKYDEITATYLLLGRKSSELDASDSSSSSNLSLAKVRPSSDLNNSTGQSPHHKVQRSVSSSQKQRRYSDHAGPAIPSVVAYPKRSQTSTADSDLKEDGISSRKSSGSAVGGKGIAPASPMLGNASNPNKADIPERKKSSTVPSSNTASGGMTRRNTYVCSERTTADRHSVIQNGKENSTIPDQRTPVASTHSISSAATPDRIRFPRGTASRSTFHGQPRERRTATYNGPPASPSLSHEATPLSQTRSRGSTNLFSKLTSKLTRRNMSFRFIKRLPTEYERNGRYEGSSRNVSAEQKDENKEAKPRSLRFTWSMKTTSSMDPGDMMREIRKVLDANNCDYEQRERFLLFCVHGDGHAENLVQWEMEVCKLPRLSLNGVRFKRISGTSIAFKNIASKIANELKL

CC(C)(COP(=O)(O)OP(=O)(O)OC[C@H]1O[C@@H](n2cnc3c(N)ncnc32)[C@H](O)[C@@H]1OP(=O)(O)O)[C@@H](O)C(=O)NCCC(=O)NCCS [CoA, Coenzyme A]
activity at 100 µM [1]: 100% | activity at 100 µM [2]: 93.9% | activity at 100 µM [3]: 124% | activity at 100 µM [4]: 102% | activity at 100 µM [5]: 110% | activity at 100 µM [6]: 115% | activity at 100 µM [7]: 95.3% | activity at 100 µM [8]: 60% | FGFR1 inhibition (in words) ([8]; kinase profiling, 100 μM): modestly inhibited | activity at 100 µM [9]: 106% | activity at 100 µM [10]: 93.2% | activity at 100 µM [11]: 115% | activity at 100 µM [12]: 88.9% | inhibition at 100 µM ([13]; 100 μM CoA, kinase profiling screen, read-out: YES inhibition): ≤ 50% | activity at 100 µM [13]: 49% | YES inhibition (in words) ([13]; kinase profiling, 100 μM): modestly inhibited | activity at 100 µM [14]: 97.2% | activity at 100 µM [15]: 131% | activity at 100 µM [16]: 111% | activity at 100 µM [17]: 70.2% | activity at 100 µM [18]: 103% | activity at 100 µM [19]: 115%

CC(C)(COP(=O)(O)OP(=O)(O)OCC1OC(n2cnc3c(N)ncnc32)C(O)C1O)C(O)C(=O)NCCC(=O)NCCS (stereo not drawn) [dpCoA, dephospho-CoA]
activity at 100 µM [1]: 69% | activity at 100 µM [2]: 76.1% | activity at 100 µM [3]: 126% | activity at 100 µM [4]: 99.2% | activity at 100 µM [5]: 76% | activity at 100 µM [6]: 75.6% | activity at 100 µM [7]: 68% | activity at 100 µM [8]: 31.4% | activity at 100 µM [9]: 70.5% | activity at 100 µM [10]: 81.1% | activity at 100 µM [11]: 79.6% | activity at 100 µM [12]: 46.2% | activity at 100 µM [13]: 11.5% | activity at 100 µM [14]: 98.9% | activity at 100 µM [15]: 88.4% | activity at 100 µM [16]: 62.9% | activity at 100 µM [17]: 61.9% | activity at 100 µM [18]: 53% | activity at 100 µM [19]: 88.8%

Nc1ncnc2c1ncn2C1OC(COP(=O)(O)OP(=O)(O)O)C(O)C1O (stereo not drawn) [ADP]
activity at 100 µM [1]: 35.1% | activity at 100 µM [2]: 57.3% | activity at 100 µM [3]: 80.1% | activity at 100 µM [4]: 45% | activity at 100 µM [5]: 41.4% | activity at 100 µM [6]: 32.5% | activity at 100 µM [7]: 28.1% | activity at 100 µM [8]: 41.7% | activity at 100 µM [9]: 53.3% | activity at 100 µM [10]: 26.3% | activity at 100 µM [11]: 15.8% | activity at 100 µM [12]: 14.8% | activity at 100 µM [13]: 18.6% | activity at 100 µM [14]: 58.5% | activity at 100 µM [15]: 46% | activity at 100 µM [16]: 9.8% | activity at 100 µM [17]: 46.8% | activity at 100 µM [18]: 35.4% | activity at 100 µM [19]: 52.4%

— paper PMC6812009, “Covalent Aurora A regulation by the metabolic integrator coenzyme A” (Redox Biology, 2019)
